Consider 1 compound from publication PMC12586598, “A novel long-acting C5a-blocking cyclic peptide prevents sepsis-induced organ dysfunction via effective blockade of the inflammatory cascade” (Signal Transduction and Targeted Therapy, 2025).

Where a SMILES comes first, the peptide text is derived from it.

This assay has as its system CLP-induced septic mice. Description: Inflammatory factors and chemokines in plasma, Luminex, CLP mice. It is filed as in vivo, mouse. As for the experimental part: Twenty-four hours later, whole blood and PLF were collected under anesthesia. The plasma and PLF supernatants were further isolated via centrifugation (3000 × g, 10 min, 4 °C) and subjected to inflammatory factor and chemokine profiling via the Luminex® multiplex […] Biotechnologies, Shanghai, China). The percent inhibition was calculated relative to that of the sham group (set as 0%).

Setting [1] is: 100 μg/20 g, 24 h after CLP surgery.

For `CSCC[C@@H]1NC(=O)[C@@H]2CCCN2C(=O)[C@H](CCSC)NC(=O)[C@H](CO)NC(=O)[C@H](Cc2c[nH]cn2)NC(=O)CNC(=O)[C@H](CO)NC(=O)[C@H](Cc2ccccc2)NC(=O)[C@H](CCCNC(=N)N)NC(=O)[C@H](CCC(=O)O)NC(=O)[C@H](Cc2ccccc2)NC(=O)[C@H](C(C)C)NC1=O` [Cp1] (cyclo(HSMPMVFERFSG)), under setting [1], the “decrease in plasma CCL2 level” value was found to be 21.7 fold, the “decrease in plasma CCL3 level” value is recorded as 81.9 fold, the “decrease in plasma CCL4 level” value stood at 24.8 fold and the “decrease in plasma CCL5 level” value was determined as 18.6 fold. For the same compound, under setting [1], the “decrease in plasma CCL7 level” value is given as 102.3 fold, the “decrease in plasma CXCL1 level” value was 61.7 fold, the “decrease in plasma CXCL5 level” value stood at 4.3 fold and the “decrease in plasma IL-1β level vs CLP group” value is on record as 94%. Also, under setting [1], the “decrease in plasma IL-6 level vs CLP group” value was 99% and the “decrease in plasma TNF-α level vs CLP group” value amounted to 86%. The “reduction in plasma IL-1β level” value (100 μg/20 g, Luminex (Fig. 4a)) is reported as 18.6 fold. The “expression of inflammatory factors and chemokines in plasma, high dose” value (300 μg of Cp1) is reported as “effectively suppressed”. For the same compound, the “plasma IL-17A, IFN-γ, GM-CSF, and CX3CL1 levels” value (24 h after CLP surgery) was “significantly decreased”. The “lowest effective dose with significant pharmacological activity” value (preliminary titrations) amounted to 100 μg.
